{"source": "patent US4126616A", "about": "“N-propylnorapomorphine diesters” (Hinshaw; William B., priority 1976, dated 1978)", "system": "caudate lesioned mouse", "experiment": "caudate lesioned mouse test (anti-parkinson activity)", "format": "in vivo", "details": "for responders at 132 µmol/kg / responders at 208 µmol/kg / responders at 26 µmol/kg / responders at 94 µmol/kg / responders at 6.5 µmol/kg / responders at 1.6 µmol/kg / responders at 3.2 µmol/kg / responders at 6 µmol/kg: Mus musculus; for responders at 132 µmol/kg: dose 0.132 m. mole/kg; for responders at 208 µmol/kg: dose 0.208 m. mole/kg; for ED50: caudate lesioned mouse, read-out: ED50; for responders at 26 µmol/kg: dose 0.026 m. mole/kg; for responders at 94 µmol/kg: dose 0.094 m. mole/kg; for responders at 6.5 µmol/kg: dose 0.0065 m. mole/kg; for responders at 1.6 µmol/kg: dose 0.0016 m. mole/kg; for responders at 3.2 µmol/kg: dose 0.0032 m. mole/kg; for responders at 6 µmol/kg: dose 0.006 m. mole/kg", "procedure": "An index of anti-parkinson activity was determined using the caudate lesioned mouse test described by Lotti, Life Sci., 10, 781-789 (1971). The mice having unilateral lesions of the caudate nucleus prepared according to the method of Lotti supra were observed immediately after the surgical procedure for strong postural asymmetries directed to the same side as the lesion. When this asymmetry was not observed, the mice were discarded. Operated mice were allowed at least 14 days to recover prior to drug testing. The lesioned mice were tested with apomorphine using 1.7 mg./kg. of base administered intraperitoneally in a 1% suspension in gum tragacanth. […] Only those mice which twisted or circled toward the lesioned side in all three test periods after the apomorphine injection were retained for further drug testing. The test drugs were all administered in 1% gum tragacanth suspension in a volume of 0.1 ml./10 g. of body weight. Doses were expressed in mg./kg. of free base.\nResults of tests in the caudate lesioned mouse test described above which were obtained on the compounds of the invention are given in the table below identified, in each case, by the example numbers above where their preparations are described. Corresponding data for reference apomorphine diesters described in German patent application No. 2,154,162 are given in a side-by-side relationship for a number of the species. The reference compounds, designated Ref. 1, Ref. 1B, Ref. 1C, Ref. 1D, Ref. 1E, Ref. 1F, Ref. 2 and Ref. 2A correspond, respectively, to the compounds of the invention identified by Examples 1, 1B, 1C, 1D, 1E, 1F, 2 and 2A and differ from the latter only in having a methyl group on the apomorphine nitrogen from instead of an n-propyl group as present in the instant compounds.", "key": {"[1]": {"details": "0.5 h, 1/2 h post-drug, read-out: No. Mice Affected/No. Mice Tested, 1/2 h (converted)"}, "[2]": {"details": "1 h post-drug, read-out: No. Mice Affected/No. Mice Tested, 1 h (converted)"}, "[3]": {"details": "4 h post-drug, read-out: No. Mice Affected/No. Mice Tested, 4 h (converted)"}, "[4]": {"details": "6 h post-drug, read-out: No. Mice Affected/No. Mice Tested, 6 h (converted)"}, "[5]": {"details": "24 h post-drug, read-out: No. Mice Affected/No. Mice Tested, 24 h (converted)"}, "[6]": {"details": "total, read-out: No. Mice Affected/No. Mice Tested, Total (converted)"}, "[7]": {"details": "1 h post-drug, read-out: No. Mice Affected/No. Mice Tested, 1 h"}, "[8]": {"details": "2 h post-drug, read-out: No. Mice Affected/No. Mice Tested, 2 h (converted)"}, "[9]": {"details": "24 h post-drug, read-out: No. Mice Affected/No. Mice Tested, 24 h"}, "[10]": {"details": "0.5 h, 1/2 h post-drug, read-out: No. Mice Affected/No. Mice Tested, 1/2 h"}, "[11]": {"details": "2 h post-drug, read-out: No. Mice Affected/No. Mice Tested, 2 h"}, "[12]": {"details": "4 h post-drug, read-out: No. Mice Affected/No. Mice Tested, 4 h"}, "[13]": {"details": "6 h post-drug, read-out: No. Mice Affected/No. Mice Tested, 6 h"}, "[14]": {"details": "total, read-out: No. Mice Affected/No. Mice Tested, Total"}}, "note": "Structures can show the parent of a compound that is named as a salt. Where two headings read alike, the source gives them in different places."}
{"smiles": "CCCN1CCc2cccc3c2C1Cc1ccc(OC(=O)c2ccc(Cl)cc2)c(OC(=O)c2ccc(Cl)cc2)c1-3", "note": "(stereo not shown) [Ex. 1F, N-Propylnorapomorphine bis-4-chlorobenzoate]", "values": [{"measurement": "responders at 132 µmol/kg", "setting": "[1]", "result": 0, "unit": "%"}, {"measurement": "responders at 208 µmol/kg", "setting": "[1]", "result": 33.3, "unit": "%"}, {"measurement": "responders at 132 µmol/kg", "setting": "[2]", "result": 25, "unit": "%"}, {"measurement": "responders at 132 µmol/kg", "setting": "[3]", "result": 0, "unit": "%"}, {"measurement": "responders at 132 µmol/kg", "setting": "[4]", "result": 25, "unit": "%"}, {"measurement": "responders at 132 µmol/kg", "setting": "[5]", "result": 0, "unit": "%"}, {"measurement": "responders at 132 µmol/kg", "setting": "[6]", "result": 25, "unit": "%"}, {"measurement": "responders at 208 µmol/kg", "setting": "[7]", "result": 0, "unit": "%"}, {"measurement": "responders at 208 µmol/kg", "setting": "[3]", "result": 66.7, "unit": "%"}, {"measurement": "responders at 208 µmol/kg", "setting": "[4]", "result": 100, "unit": "%"}, {"measurement": "responders at 208 µmol/kg", "setting": "[5]", "result": 33.3, "unit": "%"}, {"measurement": "responders at 208 µmol/kg", "setting": "[6]", "result": 100, "unit": "%"}, {"measurement": "Molar Potency Ratio Claimed/Ref. Ester", "setting": "claimed N-propyl ester vs corresponding N-methyl reference ester", "result": "≥ 3"}]}
{"smiles": "CCCN1CCc2cccc3c2C1Cc1ccc(OC(=O)c2ccccc2C)c(OC(=O)c2ccccc2C)c1-3", "note": "(stereo not shown) [Ex. 1G, N-Propylnorapomorphine bis-2-methylbenzoate]", "values": [{"measurement": "ED50", "result": 26, "unit": "µmol/kg"}, {"measurement": "responders at 26 µmol/kg", "setting": "[1]", "result": 25, "unit": "%"}, {"measurement": "responders at 26 µmol/kg", "setting": "[2]", "result": 50, "unit": "%"}, {"measurement": "responders at 26 µmol/kg", "setting": "[8]", "result": 50, "unit": "%"}, {"measurement": "responders at 26 µmol/kg", "setting": "[3]", "result": 50, "unit": "%"}, {"measurement": "responders at 26 µmol/kg", "setting": "[4]", "result": 50, "unit": "%"}, {"measurement": "responders at 26 µmol/kg", "setting": "[9]", "result": 0, "unit": "%"}, {"measurement": "responders at 26 µmol/kg", "setting": "[6]", "result": 50, "unit": "%"}]}
{"smiles": "CCCN1CCc2cccc3c2C1Cc1ccc(OC(=O)c2ccc(C)cc2)c(OC(=O)c2ccc(C)cc2)c1-3", "note": "(stereo not shown) [Ex. 1H, N-Propylnorapomorphine bis-4-methylbenzoate]", "values": [{"measurement": "ED50", "result": 70, "unit": "µmol/kg"}, {"measurement": "responders at 26 µmol/kg", "setting": "[1]", "result": 0, "unit": "%"}, {"measurement": "responders at 94 µmol/kg", "setting": "[1]", "result": 100, "unit": "%"}, {"measurement": "responders at 26 µmol/kg", "setting": "[2]", "result": 0, "unit": "%"}, {"measurement": "responders at 26 µmol/kg", "setting": "[8]", "result": 0, "unit": "%"}, {"measurement": "responders at 26 µmol/kg", "setting": "[3]", "result": 0, "unit": "%"}, {"measurement": "responders at 26 µmol/kg", "setting": "[4]", "result": 0, "unit": "%"}, {"measurement": "responders at 26 µmol/kg", "setting": "[9]", "result": 0, "unit": "%"}, {"measurement": "responders at 26 µmol/kg", "setting": "[6]", "result": 0, "unit": "%"}, {"measurement": "responders at 94 µmol/kg", "setting": "[2]", "result": 75, "unit": "%"}, {"measurement": "responders at 94 µmol/kg", "setting": "[8]", "result": 75, "unit": "%"}, {"measurement": "responders at 94 µmol/kg", "setting": "[3]", "result": 75, "unit": "%"}, {"measurement": "responders at 94 µmol/kg", "setting": "[4]", "result": 75, "unit": "%"}, {"measurement": "responders at 94 µmol/kg", "setting": "[5]", "result": 75, "unit": "%"}, {"measurement": "responders at 94 µmol/kg", "setting": "[6]", "result": 100, "unit": "%"}]}
{"smiles": "CCCN1CCc2cccc3c2C1Cc1ccc(OC(=O)c2ccc(OC)cc2)c(OC(=O)c2ccc(OC)cc2)c1-3", "note": "(stereo not shown) [Ex. 1J, N-Propylnorapomorphine bis-4-methoxybenzoate]", "values": [{"measurement": "ED50", "result": 13, "unit": "µmol/kg"}, {"measurement": "responders at 6.5 µmol/kg", "setting": "[10]", "result": 0, "unit": "%"}, {"measurement": "responders at 26 µmol/kg", "setting": "[1]", "result": 50, "unit": "%"}, {"measurement": "responders at 6.5 µmol/kg", "setting": "[7]", "result": 0, "unit": "%"}, {"measurement": "responders at 6.5 µmol/kg", "setting": "[11]", "result": 0, "unit": "%"}, {"measurement": "responders at 6.5 µmol/kg", "setting": "[12]", "result": 0, "unit": "%"}, {"measurement": "responders at 6.5 µmol/kg", "setting": "[13]", "result": 0, "unit": "%"}, {"measurement": "responders at 6.5 µmol/kg", "setting": "[9]", "result": 0, "unit": "%"}, {"measurement": "responders at 6.5 µmol/kg", "setting": "[14]", "result": 0, "unit": "%"}, {"measurement": "responders at 26 µmol/kg", "setting": "[2]", "result": 100, "unit": "%"}, {"measurement": "responders at 26 µmol/kg", "setting": "[8]", "result": 75, "unit": "%"}, {"measurement": "responders at 26 µmol/kg", "setting": "[3]", "result": 50, "unit": "%"}, {"measurement": "responders at 26 µmol/kg", "setting": "[4]", "result": 50, "unit": "%"}, {"measurement": "responders at 26 µmol/kg", "setting": "[9]", "result": 0, "unit": "%"}, {"measurement": "responders at 26 µmol/kg", "setting": "[6]", "result": 100, "unit": "%"}]}
{"smiles": "CCCN1CCc2cccc3c2C1Cc1ccc(OC(=O)c2cc(OC)cc(OC)c2)c(OC(=O)c2cc(OC)cc(OC)c2)c1-3", "note": "(stereo not shown) [Ex. 1K, N-Propylnorapomorphine bis-3,5-dimethoxybenzoate hydrochloride]", "values": [{"measurement": "responders at 1.6 µmol/kg", "setting": "[10]", "result": 0, "unit": "%"}, {"measurement": "responders at 3.2 µmol/kg", "setting": "[10]", "result": 0, "unit": "%"}, {"measurement": "responders at 6 µmol/kg", "setting": "[10]", "result": 0, "unit": "%"}, {"measurement": "responders at 26 µmol/kg", "setting": "[1]", "result": 50, "unit": "%"}, {"measurement": "responders at 1.6 µmol/kg", "setting": "[7]", "result": 0, "unit": "%"}, {"measurement": "responders at 1.6 µmol/kg", "setting": "[11]", "result": 0, "unit": "%"}, {"measurement": "responders at 1.6 µmol/kg", "setting": "[12]", "result": 0, "unit": "%"}, {"measurement": "responders at 1.6 µmol/kg", "setting": "[13]", "result": 0, "unit": "%"}, {"measurement": "responders at 1.6 µmol/kg", "setting": "[9]", "result": 0, "unit": "%"}, {"measurement": "responders at 1.6 µmol/kg", "setting": "[14]", "result": 0, "unit": "%"}, {"measurement": "responders at 3.2 µmol/kg", "setting": "[2]", "result": 25, "unit": "%"}, {"measurement": "responders at 3.2 µmol/kg", "setting": "[8]", "result": 50, "unit": "%"}, {"measurement": "responders at 3.2 µmol/kg", "setting": "[3]", "result": 50, "unit": "%"}, {"measurement": "responders at 3.2 µmol/kg", "setting": "[13]", "result": 0, "unit": "%"}, {"measurement": "responders at 3.2 µmol/kg", "setting": "[9]", "result": 0, "unit": "%"}, {"measurement": "responders at 3.2 µmol/kg", "setting": "[6]", "result": 50, "unit": "%"}, {"measurement": "responders at 6 µmol/kg", "setting": "[7]", "result": 0, "unit": "%"}, {"measurement": "responders at 6 µmol/kg", "setting": "[8]", "result": 75, "unit": "%"}, {"measurement": "responders at 6 µmol/kg", "setting": "[3]", "result": 75, "unit": "%"}, {"measurement": "responders at 6 µmol/kg", "setting": "[4]", "result": 50, "unit": "%"}, {"measurement": "responders at 6 µmol/kg", "setting": "[9]", "result": 0, "unit": "%"}, {"measurement": "responders at 6 µmol/kg", "setting": "[6]", "result": 75, "unit": "%"}, {"measurement": "responders at 26 µmol/kg", "setting": "[2]", "result": 100, "unit": "%"}, {"measurement": "responders at 26 µmol/kg", "setting": "[8]", "result": 50, "unit": "%"}, {"measurement": "responders at 26 µmol/kg", "setting": "[3]", "result": 50, "unit": "%"}, {"measurement": "responders at 26 µmol/kg", "setting": "[4]", "result": 50, "unit": "%"}, {"measurement": "responders at 26 µmol/kg", "setting": "[9]", "result": 0, "unit": "%"}, {"measurement": "responders at 26 µmol/kg", "setting": "[6]", "result": 100, "unit": "%"}]}
